# Values joined by “and” are separate entries in the source; they are usually repeats but may differ in a detail not shown here. Identical values can stand only once.
# How the values were obtained:
# Test in all cases: radiometric filter-binding kinase assay, Kinase HotSpot
# Details in all cases: compound 0.5 µM; ATP 10 µM
# [1] = target: HIPK2 (human) (UniProt Q9H2X6)
# [2] = target: TTK (human) (UniProt P33981)
# [3] = target: MYLK (human) (UniProt Q15746)
# [4] = target: RPS6KB2 (human) (UniProt Q9UBS0)
# [5] = target: EPHA5 (human) (UniProt P54756)
# [6] = target: FYN (human) (UniProt P06241)
# [7] = target: IGF1R (human) (UniProt P08069)
# [8] = target: PDGFRB (human) (UniProt P09619)
# [9] = target: MAPK12 (human) (UniProt P53778)
# [10] = target: STK4 (human) (UniProt Q13043)
# [11] = target: CAMK2D (human) (UniProt Q13557)
# Chain of CAMK2D (human) (Q13557 whole entry, looked up): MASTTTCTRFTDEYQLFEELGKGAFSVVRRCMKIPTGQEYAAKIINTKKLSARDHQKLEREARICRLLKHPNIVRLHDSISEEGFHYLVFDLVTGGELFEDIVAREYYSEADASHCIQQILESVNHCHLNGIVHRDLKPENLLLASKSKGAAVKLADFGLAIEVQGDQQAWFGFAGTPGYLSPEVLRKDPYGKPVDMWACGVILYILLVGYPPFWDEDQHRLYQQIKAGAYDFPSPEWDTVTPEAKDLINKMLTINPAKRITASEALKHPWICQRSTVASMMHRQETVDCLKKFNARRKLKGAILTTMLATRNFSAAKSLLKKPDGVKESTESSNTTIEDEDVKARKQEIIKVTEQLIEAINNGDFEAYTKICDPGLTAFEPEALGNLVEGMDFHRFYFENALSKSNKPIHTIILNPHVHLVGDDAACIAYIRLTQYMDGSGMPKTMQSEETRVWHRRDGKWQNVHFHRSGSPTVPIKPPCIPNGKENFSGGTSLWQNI
# [12] = target: IKBKB (human) (UniProt O14920)
# [13] = target: STK16 (human) (UniProt O75716)
# [14] = target: LYN (human) (UniProt P07948)
# Chain of LYN (human) (P07948 whole entry, looked up): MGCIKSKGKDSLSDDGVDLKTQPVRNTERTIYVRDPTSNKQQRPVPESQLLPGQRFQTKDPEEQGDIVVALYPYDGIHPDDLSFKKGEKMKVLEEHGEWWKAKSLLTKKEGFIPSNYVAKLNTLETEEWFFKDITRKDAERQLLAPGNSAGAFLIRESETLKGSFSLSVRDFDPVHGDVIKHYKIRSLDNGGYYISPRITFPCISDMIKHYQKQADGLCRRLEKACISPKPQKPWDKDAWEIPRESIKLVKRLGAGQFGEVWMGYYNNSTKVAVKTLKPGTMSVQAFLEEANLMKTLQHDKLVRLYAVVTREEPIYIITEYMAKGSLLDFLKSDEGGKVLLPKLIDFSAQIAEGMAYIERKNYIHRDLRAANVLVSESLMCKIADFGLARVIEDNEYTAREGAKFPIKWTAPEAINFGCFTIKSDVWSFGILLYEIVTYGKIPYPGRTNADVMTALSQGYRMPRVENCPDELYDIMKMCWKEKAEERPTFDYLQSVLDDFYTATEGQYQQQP
# [15] = target: MAP4K4 (human) (UniProt O95819)
# [16] = target: CDK2 CCNE1 (human) (UniProt P24941+P24864)
# [17] = target: CAMK1G (human) (UniProt Q96NX5)
# [18] = target: CDK2 CCNA2 (human) (UniProt P24941+P20248)
# [19] = target: CSNK1G3 (human) (UniProt Q9Y6M4)
# [20] = target: CAMK2B (human) (UniProt Q13554)
# [21] = target: EPHA8 (human) (UniProt P29322)
# [22] = target: ZAP70 (human) (UniProt P43403)
# [23] = target: FES (human) (UniProt P07332)
# [24] = target: PLK3 (human) (UniProt Q9H4B4)
# [25] = target: CSNK1G1 (human) (UniProt Q9HCP0)
# [26] = target: STK24 (human) (UniProt Q9Y6E0)
# [27] = target: MAPKAPK5 (human) (UniProt Q8IW41)
# [28] = target: TSSK1B (human) (UniProt Q9BXA7)
# [29] = target: CAMK1D (human) (UniProt Q8IU85)
# [30] = target: WEE1 (human) (UniProt P30291)
# [31] = target: MAPK14 (human) (UniProt Q16539)
# Chain of MAPK14 (human) (Q16539 whole entry, looked up): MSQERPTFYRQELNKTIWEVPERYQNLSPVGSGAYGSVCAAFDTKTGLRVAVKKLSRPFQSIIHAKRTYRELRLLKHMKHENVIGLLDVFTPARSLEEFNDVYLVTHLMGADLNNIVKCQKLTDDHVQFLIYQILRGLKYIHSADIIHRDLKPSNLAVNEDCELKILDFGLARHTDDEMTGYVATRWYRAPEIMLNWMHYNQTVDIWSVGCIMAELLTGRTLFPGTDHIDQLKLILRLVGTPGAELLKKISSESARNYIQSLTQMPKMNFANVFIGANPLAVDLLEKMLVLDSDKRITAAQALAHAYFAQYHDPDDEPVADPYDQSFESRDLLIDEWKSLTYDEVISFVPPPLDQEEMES
# [32] = target: MAP3K3 (human) (UniProt Q99759)
# [33] = target: EPHA6 (human) (UniProt Q9UF33)
# [34] = target: CDC42BPB (human) (UniProt Q9Y5S2)
# [35] = target: RAF1 (human) (UniProt P04049)
# [36] = target: TBK1 (human) (UniProt Q9UHD2)
# [37] = target: SGK3 (human) (UniProt Q96BR1)
# Chain of SGK3 (human) (Q96BR1 whole entry, looked up): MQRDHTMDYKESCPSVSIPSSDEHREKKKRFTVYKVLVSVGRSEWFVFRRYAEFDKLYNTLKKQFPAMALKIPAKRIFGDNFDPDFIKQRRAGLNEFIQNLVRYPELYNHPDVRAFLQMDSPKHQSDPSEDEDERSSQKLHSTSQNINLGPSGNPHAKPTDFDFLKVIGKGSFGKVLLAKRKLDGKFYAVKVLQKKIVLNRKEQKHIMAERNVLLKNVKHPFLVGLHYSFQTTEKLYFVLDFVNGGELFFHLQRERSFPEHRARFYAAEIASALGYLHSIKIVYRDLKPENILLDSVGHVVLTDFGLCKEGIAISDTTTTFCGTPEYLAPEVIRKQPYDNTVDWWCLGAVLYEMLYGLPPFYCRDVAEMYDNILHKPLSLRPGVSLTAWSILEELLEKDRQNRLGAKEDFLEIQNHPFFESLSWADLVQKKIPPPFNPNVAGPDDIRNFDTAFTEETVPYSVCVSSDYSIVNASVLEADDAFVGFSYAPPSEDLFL
# [38] = target: FGFR3 (human) (UniProt P22607)
# [39] = target: FER (human) (UniProt P16591)
# [40] = target: NTRK1 (human) (UniProt P04629)
# [41] = target: EPHB3 (human) (UniProt P54753)
# [42] = target: CSNK1D (human) (UniProt P48730)
# Chain of CSNK1D (human) (P48730 whole entry, looked up): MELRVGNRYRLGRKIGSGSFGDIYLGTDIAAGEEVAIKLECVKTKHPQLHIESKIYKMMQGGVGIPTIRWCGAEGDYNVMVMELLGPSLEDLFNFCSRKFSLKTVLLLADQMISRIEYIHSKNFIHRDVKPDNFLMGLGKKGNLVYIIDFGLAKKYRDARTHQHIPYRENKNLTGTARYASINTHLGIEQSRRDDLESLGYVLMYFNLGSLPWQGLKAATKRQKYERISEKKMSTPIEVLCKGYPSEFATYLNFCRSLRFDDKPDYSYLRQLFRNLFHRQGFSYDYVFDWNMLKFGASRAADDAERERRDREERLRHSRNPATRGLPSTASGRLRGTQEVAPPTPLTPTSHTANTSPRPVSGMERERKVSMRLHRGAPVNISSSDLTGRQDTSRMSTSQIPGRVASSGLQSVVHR
# Chain of TTK (human) (P33981 whole entry, looked up): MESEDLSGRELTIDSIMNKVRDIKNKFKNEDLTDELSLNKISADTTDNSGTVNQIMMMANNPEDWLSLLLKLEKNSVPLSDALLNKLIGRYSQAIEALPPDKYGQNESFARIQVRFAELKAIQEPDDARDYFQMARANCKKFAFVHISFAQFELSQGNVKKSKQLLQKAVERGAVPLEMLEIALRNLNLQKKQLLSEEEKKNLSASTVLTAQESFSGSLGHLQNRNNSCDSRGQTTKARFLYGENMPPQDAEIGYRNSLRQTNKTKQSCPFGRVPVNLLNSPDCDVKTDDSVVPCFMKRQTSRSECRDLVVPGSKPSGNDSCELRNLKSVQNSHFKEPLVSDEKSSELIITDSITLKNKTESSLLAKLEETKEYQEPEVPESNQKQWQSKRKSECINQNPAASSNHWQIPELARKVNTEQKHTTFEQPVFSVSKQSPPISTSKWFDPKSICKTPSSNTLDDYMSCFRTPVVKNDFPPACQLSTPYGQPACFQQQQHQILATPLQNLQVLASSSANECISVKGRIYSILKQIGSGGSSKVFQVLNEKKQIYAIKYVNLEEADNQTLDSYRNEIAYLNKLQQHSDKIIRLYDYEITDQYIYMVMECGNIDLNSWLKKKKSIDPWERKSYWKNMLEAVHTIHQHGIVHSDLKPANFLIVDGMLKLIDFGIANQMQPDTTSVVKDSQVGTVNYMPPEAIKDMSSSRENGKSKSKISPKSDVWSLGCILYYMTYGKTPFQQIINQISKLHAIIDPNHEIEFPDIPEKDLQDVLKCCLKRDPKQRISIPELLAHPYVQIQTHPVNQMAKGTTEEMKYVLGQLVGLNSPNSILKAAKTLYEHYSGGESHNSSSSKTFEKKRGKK
# Chain of MYLK (human) (Q15746 whole entry, looked up): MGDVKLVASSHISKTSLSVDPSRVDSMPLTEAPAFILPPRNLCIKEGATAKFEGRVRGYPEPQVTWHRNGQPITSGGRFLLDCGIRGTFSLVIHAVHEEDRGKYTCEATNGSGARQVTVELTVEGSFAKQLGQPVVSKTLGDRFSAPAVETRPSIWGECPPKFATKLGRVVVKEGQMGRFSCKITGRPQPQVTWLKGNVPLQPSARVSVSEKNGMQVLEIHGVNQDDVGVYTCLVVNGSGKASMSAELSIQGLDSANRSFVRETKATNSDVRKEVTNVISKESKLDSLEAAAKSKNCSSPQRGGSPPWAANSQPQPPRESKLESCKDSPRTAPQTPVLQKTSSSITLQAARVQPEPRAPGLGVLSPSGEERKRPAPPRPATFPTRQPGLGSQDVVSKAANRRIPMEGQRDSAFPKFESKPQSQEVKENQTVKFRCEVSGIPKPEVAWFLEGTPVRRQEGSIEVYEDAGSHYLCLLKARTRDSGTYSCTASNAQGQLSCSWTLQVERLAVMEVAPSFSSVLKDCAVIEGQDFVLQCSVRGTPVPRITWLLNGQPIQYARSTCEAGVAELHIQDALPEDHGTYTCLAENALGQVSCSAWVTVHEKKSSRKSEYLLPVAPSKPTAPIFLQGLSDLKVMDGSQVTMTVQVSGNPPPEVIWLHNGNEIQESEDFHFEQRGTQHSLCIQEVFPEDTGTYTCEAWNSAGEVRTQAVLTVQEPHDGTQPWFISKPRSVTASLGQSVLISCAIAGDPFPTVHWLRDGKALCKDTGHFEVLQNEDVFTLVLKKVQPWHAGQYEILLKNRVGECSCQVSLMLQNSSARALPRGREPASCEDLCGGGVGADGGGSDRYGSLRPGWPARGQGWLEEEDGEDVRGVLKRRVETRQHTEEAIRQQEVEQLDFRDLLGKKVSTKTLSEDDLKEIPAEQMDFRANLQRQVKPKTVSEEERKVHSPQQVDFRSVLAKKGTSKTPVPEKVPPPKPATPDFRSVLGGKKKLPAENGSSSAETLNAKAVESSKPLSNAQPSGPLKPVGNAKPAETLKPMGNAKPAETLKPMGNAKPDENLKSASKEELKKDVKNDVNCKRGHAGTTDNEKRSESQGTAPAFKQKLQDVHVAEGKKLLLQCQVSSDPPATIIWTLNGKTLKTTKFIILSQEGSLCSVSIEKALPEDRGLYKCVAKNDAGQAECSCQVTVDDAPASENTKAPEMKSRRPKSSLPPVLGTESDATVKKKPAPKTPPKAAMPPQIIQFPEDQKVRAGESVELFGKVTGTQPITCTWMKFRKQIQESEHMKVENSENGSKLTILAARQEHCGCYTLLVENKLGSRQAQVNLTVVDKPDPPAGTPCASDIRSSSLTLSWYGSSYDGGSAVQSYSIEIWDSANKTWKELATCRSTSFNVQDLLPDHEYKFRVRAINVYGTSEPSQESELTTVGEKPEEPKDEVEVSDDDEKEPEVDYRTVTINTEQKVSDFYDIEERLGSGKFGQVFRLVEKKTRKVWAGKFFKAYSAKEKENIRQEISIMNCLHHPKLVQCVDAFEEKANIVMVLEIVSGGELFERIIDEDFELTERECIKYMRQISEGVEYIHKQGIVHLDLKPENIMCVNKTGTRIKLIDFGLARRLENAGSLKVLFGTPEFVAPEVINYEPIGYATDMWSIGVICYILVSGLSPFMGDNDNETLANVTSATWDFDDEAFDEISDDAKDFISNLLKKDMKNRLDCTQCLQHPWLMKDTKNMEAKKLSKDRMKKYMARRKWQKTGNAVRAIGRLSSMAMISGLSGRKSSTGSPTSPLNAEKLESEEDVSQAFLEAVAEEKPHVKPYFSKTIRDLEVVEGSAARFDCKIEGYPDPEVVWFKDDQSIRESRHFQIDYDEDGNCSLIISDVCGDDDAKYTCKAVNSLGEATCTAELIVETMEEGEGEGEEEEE
structure (smiles),measurement,setting,value
Nc1ncnc2c1c(-c1ccc(Oc3ccccc3)cc1)cn2C1CCCC1,residual activity,[1],106%
same,residual activity,[2],104%
same,residual activity,[3],98.4%
same,residual activity,[4],107%
same,residual activity,[5],108%
same,residual activity,[6],3.51%
same,residual activity,[7],104%
same,residual activity,[8],73.4%
same,residual activity,[9],97.6%
same,residual activity,[10],77.8%
same,residual activity,[11],99.5%
same,residual activity,[12],101%
same,residual activity,[13],90.7%
same,residual activity,[14],3.49% and 5.13%
same,residual activity,[15],98.8%
same,residual activity,[16],91.3%
same,residual activity,[17],95.8%
same,residual activity,[18],104%
same,residual activity,[19],99.5%
same,residual activity,[20],102%
same,residual activity,[21],95.2%
same,residual activity,[22],102%
same,residual activity,[23],94.9%
same,residual activity,[24],105%
same,residual activity,[25],90.8%
same,residual activity,[26],100%
same,residual activity,[27],98.7%
same,residual activity,[28],114%
same,residual activity,[29],50.3%
same,residual activity,[30],77.8%
same,residual activity,[31],76.3%
same,residual activity,[32],71.2%
same,residual activity,[33],63.6%
same,residual activity,[34],107%
same,residual activity,[35],71.3%
same,residual activity,[36],92.7%
same,residual activity,[37],112%
same,residual activity,[38],77.5%
same,residual activity,[39],88.1%
same,residual activity,[40],94.3%
same,residual activity,[41],93.4%
same,residual activity,[42],85.1%
Nc1ncnc2[nH]nc(Nc3ccc(F)cc3)c12,residual activity,[1],106%
same,residual activity,[2],96.1%
same,residual activity,[3],94.7%
same,residual activity,[4],96.8%
same,residual activity,[5],87%
same,residual activity,[6],93%
same,residual activity,[7],104%
same,residual activity,[8],98%
same,residual activity,[9],94.2%
same,residual activity,[10],90.4%
same,residual activity,[11],92.5%
same,residual activity,[12],105%
same,residual activity,[13],108%
same,residual activity,[14],89.7% and 90.3%
same,residual activity,[15],59.4%
same,residual activity,[16],90.3%
same,residual activity,[17],97.2%
same,residual activity,[18],88.7%
same,residual activity,[19],97.9%
same,residual activity,[20],97.7%
same,residual activity,[21],94%
same,residual activity,[22],95.2%
same,residual activity,[23],100%
same,residual activity,[24],98%
same,residual activity,[25],83.3%
same,residual activity,[26],81.6%
same,residual activity,[27],80.9%
same,residual activity,[28],96.4%
same,residual activity,[29],130%
same,residual activity,[30],93.9%
same,residual activity,[31],79.5%
same,residual activity,[32],87.6%
same,residual activity,[33],49.3%
same,residual activity,[34],106%
same,residual activity,[35],96.7%
same,residual activity,[36],99.6%
same,residual activity,[37],102%
same,residual activity,[38],101%
same,residual activity,[39],100%
same,residual activity,[40],109%
same,residual activity,[41],87.7%
same,residual activity,[42],67.7%

# From the kinase profiling compilation of Christmann-Franck et al. (2016)
